The values below come from patent US10370371B2, “Substituted pyrimidine Bmi-1 inhibitors” (PTC Therapeutics, Inc., priority 2013, dated 2019).

The experiment has as its system Bmi-1 protein. In words: Sandwich ELISA Assay (Bmi-1 protein level in HT-1080 cells). The format is cell-based. Here is the method:
Cell Seeding and Compound Treatment (Day 1):
HT-1080 cells were seeded at 8000 cells/well (50 μL) in 96-well tissue culture plates. After the cells became adherent (3-4 hours), 2× diluted stocks of test compounds in 50 μL DMEM containing 1% DMSO (final DMSO concentration was 0.5%) were added and the plates were incubated at 37° C. under 5% CO2 for 40-48 hours.
ELISA Plate First Antibody Preparation (Day 2):
The First Antibody (Millipore Mouse, monoclonal to mouse Bmi-1, clone F6, catalog #05-637) diluted to 2 μg/mL in PBS was added (100 μL) to each well of a Nunc MaxiSorp 96-well ELISA plate. The plate was covered with a plate seal and allowed to stand overnight.
Cell Lysate Preparation (Day 3):
Fresh Lysis buffer (1×) was prepared on the day of the assay as follows: 1 mM EDTA, 150 mM NaCl, 0.5% Triton-X 100, 10 mM NaF, 20 mM B-Glycerophosphate, 1 mM DTT (in PBS, pH 7.2-7.4) and HALT protease inhibitor cocktail (1×) (Pierce #78410).
Lysis Buffer (1×, 40 μL) was added to each well and the plate was shaken for 5-10 minutes on an orbital shaker to allow cell lysis, then diluent (1% BSA in PBS in 0.5% NP40) (100 μL) was added to each well.
A standard curve was prepared at the following Bmi-1 concentrations: 8000, 4000, 2000, 1000, 500, 250, 125 and 0 pg/mL. The Bmi-1 Recombinant Protein Standard (Novus Biologicals PCGF4 Recombinant Protein (P01), catalog # H00000648-P01) used to prepare the standard curve was stored at −80° C. On first thaw, the Recombinant Protein Standard was diluted to 10 μg/μL in Blocking Buffer (1% BSA in PBS; BSA: Fisher Scientific Catalog #1600-100). Aliquots were taken and refrozen at −80° C. The aliquots may be kept at 4° C. and reused after first thaw, but only within 1-2 weeks. The Recombinant Protein Standard contains a GST-fusion tag that appears at approximately 70 Kda on Western Blot.
The prepared ELISA plate was washed 3× with Wash Buffer (0.05% Tween-20 in PBS). The final wash was removed from the plate and the plate was blotted dry. Blocking Buffer (300 μL) (1% BSA in PBS) was added to each well. The plate was covered with a plate seal and incubated at room temperature for 1 hour. The blocked plate was washed 3× with Wash Buffer, then the final wash was removed and the plate was blotted dry. The previously prepared samples and standards were added (100 μL/well) and the plate was covered with a plate seal and incubated at 4° C. overnight.
The prepared ELISA plate was removed from incubation and allowed to stand at room temperature for 30 minutes, then washed and blotted dry. The Second Antibody (Cell Signaling Rabbit anti-Bmi-1, Cat#2830) diluted to 1:600 in Blocking Buffer was added (100 μL) to each well, except as needed for background control wells. The plate was covered with a plate seal and incubated for 1.5 hrs at room temperature.
The ELISA plate was washed and blotted dry as previously described. The Third Antibody (Cell Signaling HRP conjugated anti-rabbit IgG (CellSignaling, Cat#:7074) diluted to 1:300 in Blocking Buffer was added (100 μL) to each well, except as needed for background control wells. The plate was incubated for 1 hr at room temperature.
The plate was washed and blotted dry, then a previously prepared TMB substrate (TMB substrate kit, Pierce catalog #34021) (prepared by mixing kit reagents 1:1) (100 μL) was added per well. The plate was incubated for 20-30 minutes at room temperature in the dark, then Stop Solution (2 M sulfuric acid in water) (50 μL) was added per well. The plates were read at OD450 (experimental) and OD570 (reference).
In general terms: ELISA stands for enzyme-linked immunosorbent assay.
One may read the EC50 as the concentration that produces a half-maximal response. `Cc1nc2ccc(F)cn2c1-c1cc(N)nc(Nc2ccc(C(F)(F)F)cc2)n1` [Cpd 1, 6-(6-fluoro-2-methylimidazo[1,2-a]pyridin-3-yl)-N^2-[4-(trifluoromethyl)phenyl]pyrimidine-2,4-diamine]: the EC50 was in the range of 1 to 10 nM.

The molecule `Cc1nn(C)c(C)c1-c1cc(N)nc(Nc2ccc(C(F)(F)F)cc2)n1` [Cpd 3, N^2-[4-(trifluoromethyl)phenyl]-6-(1,3,5-trimethyl-1H-pyrazol-4-yl)pyrimidine-2,4-diamine] registered an EC50 of 1 to 10 nM.

Take `Cc1nc2ccc(F)cc2n1-c1cc(N)nc(Nc2ccc(C(F)(F)F)cc2)n1` [Cpd 4, 6-(6-fluoro-2-methyl-1H-benzimidazol-1-yl)-N^2-[4-(trifluoromethyl)phenyl]pyrimidine-2,4-diamine]: the EC50 fell in the range of 10 to 100 nM.

`Cc1nc2ccccc2n1-c1cc(Cl)nc(Nc2ccc(C(F)(F)F)cc2)n1` [Cpd 6, 4-chloro-6-(2-methyl-1H-benzimidazol-1-yl)-N-[4-(trifluoromethyl)phenyl]pyrimidin-2-amine] registered an EC50 of 100 to 3000 nM.

`Cc1nc2ccccc2n1-c1cc(N)nc(Nc2ccc(C(F)(F)F)cc2)n1` [Cpd 7, 6-(2-methyl-1H-benzimidazol-1-yl)-N^2-[4-(trifluoromethyl)phenyl]pyrimidine-2,4-diamine] returned an EC50 of 10 to 100 nM.

In turn, `Cc1nc2ccccc2n1-c1cc(Cl)nc(Nc2ccc(C(F)(F)F)c(F)c2)n1` [Cpd 8, 4-chloro-N-[3-fluoro-4-(trifluoromethyl)phenyl]-6-(2-methyl-1H-benzimidazol-1-yl)pyrimidin-2-amine] gave an EC50 of 100 to 3000 nM.

Consider `Nc1cc(-c2c(C3CC3)nc3ccc(F)cn23)nc(Nc2ccc(OC(F)F)c(F)c2)n1` [Cpd 9, 6-(2-cyclopropyl-6-fluoroimidazo[1,2-a]pyridin-3-yl)-N^2-[4-(difluoromethoxy)-3-fluorophenyl]pyrimidine-2,4-diamine], for which the EC50 was in the range of 1 to 10 nM.

`Cc1nc2ccc(F)cc2n1-c1cc(N)nc(Nc2ccc(OC(F)F)c(F)c2)n1` [Cpd 10, N^2-[4-(difluoromethoxy)-3-fluorophenyl]-6-(6-fluoro-2-methyl-1H-benzimidazol-1-yl)pyrimidine-2,4-diamine] yielded an EC50 of 10 to 100 nM.

For `Cc1nc2ccccc2n1-c1cc(N)nc(Nc2ccc(C(F)(F)F)c(F)c2)n1` [Cpd 13, N^2-[3-fluoro-4-(trifluoromethyl)phenyl]-6-(2-methyl-1H-benzimidazol-1-yl)pyrimidine-2,4-diamine], the EC50 lay within 100 to 3000 nM.

In the case of `Cc1nc2ccccc2n1-c1cc(N)nc(Nc2ccc(OC(F)F)c(F)c2)n1` [Cpd 14, N^2-[4-(difluoromethoxy)-3-fluorophenyl]-6-(2-methyl-1H-benzimidazol-1-yl)pyrimidine-2,4-diamine], the EC50 is 10 to 100 nM.

Turning to `Cc1nc2ccccc2n1-c1cc(NCCO)nc(Nc2ccc(C(F)(F)F)cc2)n1` [Cpd 15, 2-{[6-(2-methyl-1H-benzimidazol-1-yl)-2-{[4-(trifluoromethyl)phenyl]amino}pyrimidin-4-yl]amino}ethanol], the EC50 is 100 to 3000 nM.

The molecule `Cc1nc2ccccc2n1-c1cc(NCCO)nc(Nc2ccc(C(F)(F)F)c(F)c2)n1` [Cpd 16, 2-{[2-{[3-fluoro-4-(trifluoromethyl)phenyl]amino}-6-(2-methyl-1H-benzimidazol-1-yl)pyrimidin-4-yl]amino}ethanol] had an EC50 of 100 to 3000 nM.

`Cc1nc2ccccc2n1-c1cc(NCCO)nc(Nc2ccc(OC(F)F)c(F)c2)n1` [Cpd 17, 2-{[2-{[4-(difluoromethoxy)-3-fluorophenyl]amino}-6-(2-methyl-1H-benzimidazol-1-yl)pyrimidin-4-yl]amino}ethanol] showed a 50% effective concentration (EC50) of 100 to 3000 nM.

Take `Cc1nc2cc(F)c(F)cc2n1-c1cc(Cl)nc(Nc2ccc(C(F)(F)F)cc2)n1` [Cpd 18, 4-chloro-6-(5,6-difluoro-2-methyl-1H-benzimidazol-1-yl)-N-[4-(trifluoromethyl)phenyl]pyrimidin-2-amine]: the EC50 lay within 100 to 3000 nM.

`Cc1nc2cc(F)c(F)cc2n1-c1cc(Cl)nc(Nc2ccc(C(F)(F)F)c(F)c2)n1` [Cpd 19, 4-chloro-6-(5,6-difluoro-2-methyl-1H-benzimidazol-1-yl)-N-[3-fluoro-4-(trifluoromethyl)phenyl]pyrimidin-2-amine] gave an EC50 of 100 to 3000 nM.

`Cc1nc2cc(F)c(F)cc2n1-c1cc(N)nc(Nc2ccc(C(F)(F)F)cc2)n1` [Cpd 20, 6-(5,6-difluoro-2-methyl-1H-benzimidazol-1-yl)-N^2-[4-(trifluoromethyl)phenyl]pyrimidine-2,4-diamine]: the EC50 is 10 to 100 nM.

Molecule `Cc1nc2cc(F)c(F)cc2n1-c1cc(NCCO)nc(Nc2ccc(C(F)(F)F)cc2)n1` [Cpd 21, 2-{[6-(5,6-difluoro-2-methyl-1H-benzimidazol-1-yl)-2-{[4-(trifluoromethyl)phenyl]amino}pyrimidin-4-yl]amino}ethanol] returned an EC50 of 100 to 3000 nM.

Molecule `Cc1nc2ccccc2n1-c1cc(NO)nc(Nc2ccc(C(F)(F)F)cc2)n1` [Cpd 22, N^4-hydroxy-6-(2-methyl-1H-benzimidazol-1-yl)-N^2-[4-(trifluoromethyl)phenyl]pyrimidine-2,4-diamine] came in with an EC50 of 10 to 100 nM.

Molecule `CCc1nc2ccccc2n1-c1cc(N)nc(Nc2ccc(C(F)(F)F)cc2)n1` [Cpd 23, 6-(2-ethyl-1H-benzimidazol-1-yl)-N^2-[4-(trifluoromethyl)phenyl]pyrimidine-2,4-diamine] showed an EC50 of 10 to 100 nM.

Consider `Cc1nc2cc(F)c(F)cc2n1-c1cc(N)nc(Nc2ccc(C(F)(F)F)c(F)c2)n1` [Cpd 24, 6-(5,6-difluoro-2-methyl-1H-benzimidazol-1-yl)-N^2-[3-fluoro-4-(trifluoromethyl)phenyl]pyrimidine-2,4-diamine], for which the EC50 lay within 100 to 3000 nM.

For the molecule `Nc1cc(-c2ccnc3ccccc23)nc(Nc2ccc(C(F)(F)F)cc2)n1` [Cpd 25, 6-(quinolin-4-yl)-N^2-[4-(trifluoromethyl)phenyl]pyrimidine-2,4-diamine], the EC50 was 100 to 3000 nM.

On to `CCc1nc2ccc(F)cc2n1-c1cc(N)nc(Nc2ccc(C(F)(F)F)cc2)n1` [Cpd 26, 6-(2-ethyl-6-fluoro-1H-benzimidazol-1-yl)-N^2-[4-(trifluoromethyl)phenyl]pyrimidine-2,4-diamine], for which the EC50 lay in the range of 10 to 100 nM.

In turn, `Nc1cc(-n2c(C3CC3)nc3ccc(F)cc32)nc(Nc2ccc(C(F)(F)F)cc2)n1` [Cpd 27, 6-(2-cyclopropyl-6-fluoro-1H-benzimidazol-1-yl)-N^2-[4-(trifluoromethyl)phenyl]pyrimidine-2,4-diamine] gave an EC50 of 10 to 100 nM.

For `Nc1cc(-c2c(CO)nc3ccccn23)nc(Nc2ccc(C(F)(F)F)cc2)n1` [Cpd 28, [3-(6-amino-2-{[4-(trifluoromethyl)phenyl]amino}pyrimidin-4-yl)imidazo[1,2-a]pyridin-2-yl]methanol], the EC50 was in the range of 1 to 10 nM.

The molecule `Nc1cc(-c2c(CO)nc3ccc(F)cn23)nc(Nc2ccc(C(F)(F)F)cc2)n1` [Cpd 29, [3-(6-amino-2-{[4-(trifluoromethyl)phenyl]amino}pyrimidin-4-yl)-6-fluoroimidazo[1,2-a]pyridin-2-yl]methanol] came in with an EC50 of 10 to 100 nM.

For the molecule `Cc1nc2ccccc2n1-c1cc(Cl)nc(Nc2ccc(OC(F)F)c(F)c2)n1` [Cpd 30, 4-chloro-N-[4-(difluoromethoxy)-3-fluorophenyl]-6-(2-methyl-1H-benzimidazol-1-yl)pyrimidin-2-amine], the half-maximal effective concentration (EC50) lay within 100 to 3000 nM.
